Assay results from patent US20090318468A1, “PYRAZOLE COMPOUNDS 436” (AstraZeneca AB, priority 2008, published 2009).

Biological target: T1, human cytochrome P450 (CYP) 2C19 (Homo sapiens, UniProt P33261)
T1 construct: made in house; host or cells: yeast (microsomal fraction)
Assay: Cytochrome P450 Inhibition Assay, CYP 2C19
Assay type: in vitro ADME
Conditions: expected IC50 range of known inhibitor (positive control); read-out: IC50 range (μM), CYP 2C19
Experimental: Cytochrome P450 Inhibition Assay
The inhibitory potential (IC50) of test compounds against 5 human cytochrome P450 (CYP) isoforms (1A2, 2C9, 2C19, 3A4 and 2D6) was assessed using an automated fluorescent end point in vitro assay modified from Crespi (Crespi and Stresser, J Pharmacol Toxicol Methods 2000, 44: 325-331). Microsomal subcellular fractions prepared from Yeast cell lines expressing each human CYP isoform were used as an enzyme source in this assay. The activity of the 5 major human CYPs was determined from the biotransformation of a number of coumarin substrates to fluorescent metabolites, in the presence of NADPH. […] Stock solutions of each CYP, with its respective substrate, were prepared in phosphate buffer pH 7.4 (see Table 1) and 178 μl was added to the well of a black solid, flat bottom, 300 μl 96 well microtitre plate (Corning Costar). […] After pre-incubating at 37° C. for 5 min the reactions were started with addition of NADPH (20 μl, concentration shown in Table 1). The final solvent content in each incubation was <=2% (1% from the test compound and a maximum of 1% from the substrate). The appropriate solvent controls and substrate blanks were included in each experiment to assess control activity and identify any inherent fluorescence due to the test compounds. In addition, known inhibitors of each CYP were included as positive controls (see Table 3 for inhibitor concentrations and expected IC50 ranges). The reactions were stopped at defined timepoints (see Table 1) by quenching with 100 μl of solvent (acetonitrile:0.5M Tris buffer 80:20 v/v). The plates were read on a fluorimeter (Spectrafluor Plus) at the appropriate excitation and emission wavelengths (listed in Table 2) and the percent activity, corrected for control, was plotted against the test compound concentration.

T1 sequence (P33261 whole entry): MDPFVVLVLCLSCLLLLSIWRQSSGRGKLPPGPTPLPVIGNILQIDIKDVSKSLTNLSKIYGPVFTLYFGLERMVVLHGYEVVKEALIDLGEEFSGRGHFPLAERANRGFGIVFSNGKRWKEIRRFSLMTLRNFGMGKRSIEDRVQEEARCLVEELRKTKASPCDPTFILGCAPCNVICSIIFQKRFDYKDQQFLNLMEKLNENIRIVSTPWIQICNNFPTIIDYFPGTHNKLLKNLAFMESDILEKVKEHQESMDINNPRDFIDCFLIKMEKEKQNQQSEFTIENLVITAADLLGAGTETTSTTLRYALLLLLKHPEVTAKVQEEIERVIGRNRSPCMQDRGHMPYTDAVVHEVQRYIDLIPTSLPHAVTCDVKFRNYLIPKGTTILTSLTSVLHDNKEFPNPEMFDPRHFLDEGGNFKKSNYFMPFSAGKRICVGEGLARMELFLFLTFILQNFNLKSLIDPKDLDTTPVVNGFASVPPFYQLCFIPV

IC50: 1.5 to 4.6 µM
Compound: COc1ccc2[nH]c([S+]([O-])Cc3ncc(C)c(OC)c3C)nc2c1 (stereo not shown) [Omeprazole, reference compound]
